Patent US10441663B2, “Methods for treating cancer” (Bicycle Therapeutics Limited, priority 2016, dated 2019)
*1 amine or outer side, *2 acyl side, *3 side chain or, on linkers, in order; H or OH if unused. Where a SMILES comes first, the peptide text is derived from it. Bridges are numbered along the chain shown (N, C = ends). [ ]: non-standard residue; d: D form. 1Nal = N[C@@H](Cc1cccc2ccccc12)C(=O)O; TBMB = c1c(C[*:1])cc(C[*:3])cc1C[*:2]; Tle = CC(C)(C)[C@H](N)C(=O)O; βAla = NCCC(=O)O; Sar = CNCC(=O)O

Key:
LU-01-0486 PDX model = assay type: in vivo, Mus Musculus; details: Docetaxel group
Method: The objective of this study was to evaluate the in vivo anti-tumor efficacy of BT1718 in the treatment of MT1-MMP low-expressing LU-01-0486 PDX model in female Balb/C nude mice
Each mouse was inoculated subcutaneously at the right flank with LU-01-0486 of tumor fragment (30 mm^3) for tumor development. The treatments was started when the average tumor volume reaches 164 mm^3.
All the procedures related to animal handling, care and the treatment in the study were performed following the guidance of the Association for Assessment and Accreditation of Laboratory Animal Care (AAALAC). At the time of routine monitoring, the animals were daily checked for any effects of tumor growth and treatments on normal behavior such as mobility, food and water consumption (by looking only), body weight gain/loss (body weights were measured twice weekly), eye/hair matting and any other abnormal effect as stated in the protocol. Death and observed clinical signs were recorded on the basis of the numbers of animals within each subset.
The major endpoint was to see if the tumor growth could be delayed or mice could be cured. Tumor size was measured two times weekly in two dimensions using a caliper, and the volume was expressed in mm^3 using the formula: V=0.5 a×b^2 where a and b are the long and short diameters of the tumor, respectively. The tumor size was then used for calculations of T/C value. […]
TGI was calculated for each group using the formula: TGI (%)=[1−(Ti−T0)/(Vi−V0)]×100; Ti is the average tumor volume of a treatment group on a given day, T0 is the average tumor volume of the treatment group on the day of treatment start, Vi is the average tumor volume of the vehicle control group on the same day with Ti, and V0 is the average tumor volume of the vehicle group on the day of treatment start. […]
A one-way ANOVA was performed to compare tumor volume among groups, and when a significant F-statistics (a ratio of treatment variance to the error variance) was obtained, comparisons between groups were carried out with Games-Howell test. All data were analyzed using Prism. […]

MMP24 = MMP24 (Homo sapiens, UniProt Q9Y5R2); assay: Binding to related MMP family member
Method: (§1) A bicyclic constrained peptide binder (Bicycle) was identified that binds to the hemopexin domain of MT1 with an apparent Kd of approximately 2 nM. […] Bicycle drug conjugates (BDCs) with a variety of linkers and cytotoxic payloads were prepared which retained binding to MT1.

MMP1 [1] = biological target: T1, MMP1 (Homo sapiens, UniProt P03956); assay: Binding to related MMP family member
Method: as §1

MMP2 [2] = biological target: T2, MMP2 (Homo sapiens, UniProt P08253); assay: Binding to related MMP family member
Method: as §1

MMP9 = MMP9 (Homo sapiens, UniProt P14780); assay: Effect on related MMP catalytic activity; assay type: biochemical; details: in vitro
Method: as §1

MMP1 [3] = biological target: T1, MMP1; assay: Effect on related MMP catalytic activity; assay type: biochemical; details: in vitro
Method: as §1

MMP2 [4] = biological target: T2, MMP2; assay: Effect on related MMP catalytic activity; assay type: biochemical; details: in vitro
Method: as §1

MMP15 = MMP15 (Homo sapiens, UniProt P51511); assay: Binding to related MMP family member
catalytic domain (MT1) = assay: Bicycle peptide binding to catalytic domain
Method: as §1

Pro-MMP1 = biological target: T3, Pro-MMP1 (Homo sapiens, UniProt P03956); assay: Binding to related MMP family member
T3 construct: MMP1, Pro-MMP1, MMP2

MMP16 = MMP16 (Homo sapiens, UniProt P51512); assay: Binding to related MMP family member
[5] = test system: cell migration or invasion; assay: Effect on cell migration or invasion; assay type: cell-based; details: in vitro
Method: as §1

MT1 = MT1 (Homo sapiens, UniProt P50281); assay: Effect on catalytic activity of the protease in vitro; assay type: biochemical
Method: as §1

T2 sequence (P08253 110-660, species assumed): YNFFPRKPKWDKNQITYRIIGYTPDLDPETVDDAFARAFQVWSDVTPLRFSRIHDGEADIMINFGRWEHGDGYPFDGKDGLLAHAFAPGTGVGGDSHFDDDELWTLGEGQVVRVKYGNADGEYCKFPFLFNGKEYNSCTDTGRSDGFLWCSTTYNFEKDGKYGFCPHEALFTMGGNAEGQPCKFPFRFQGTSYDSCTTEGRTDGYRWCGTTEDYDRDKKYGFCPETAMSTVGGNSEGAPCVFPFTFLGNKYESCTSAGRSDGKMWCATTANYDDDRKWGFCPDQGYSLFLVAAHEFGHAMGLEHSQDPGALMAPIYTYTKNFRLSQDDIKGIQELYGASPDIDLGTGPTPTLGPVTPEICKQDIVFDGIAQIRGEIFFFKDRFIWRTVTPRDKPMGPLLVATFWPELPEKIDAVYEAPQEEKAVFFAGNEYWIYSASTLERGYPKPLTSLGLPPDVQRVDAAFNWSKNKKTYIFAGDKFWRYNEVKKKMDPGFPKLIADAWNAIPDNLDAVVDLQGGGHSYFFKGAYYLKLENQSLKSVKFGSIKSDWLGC
T1 sequence (P03956 100-469, species assumed): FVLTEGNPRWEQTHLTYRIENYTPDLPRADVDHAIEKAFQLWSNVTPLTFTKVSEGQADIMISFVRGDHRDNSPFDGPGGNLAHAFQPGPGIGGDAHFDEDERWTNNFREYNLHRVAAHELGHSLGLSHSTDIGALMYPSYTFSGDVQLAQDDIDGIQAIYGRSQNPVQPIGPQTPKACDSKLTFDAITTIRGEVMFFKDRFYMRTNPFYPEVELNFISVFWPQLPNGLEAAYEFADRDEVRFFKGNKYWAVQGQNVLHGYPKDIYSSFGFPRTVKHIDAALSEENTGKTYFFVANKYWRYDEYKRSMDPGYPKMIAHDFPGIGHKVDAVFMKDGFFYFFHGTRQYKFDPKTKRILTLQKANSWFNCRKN
MMP16, sequence (P51512 120-607, species assumed): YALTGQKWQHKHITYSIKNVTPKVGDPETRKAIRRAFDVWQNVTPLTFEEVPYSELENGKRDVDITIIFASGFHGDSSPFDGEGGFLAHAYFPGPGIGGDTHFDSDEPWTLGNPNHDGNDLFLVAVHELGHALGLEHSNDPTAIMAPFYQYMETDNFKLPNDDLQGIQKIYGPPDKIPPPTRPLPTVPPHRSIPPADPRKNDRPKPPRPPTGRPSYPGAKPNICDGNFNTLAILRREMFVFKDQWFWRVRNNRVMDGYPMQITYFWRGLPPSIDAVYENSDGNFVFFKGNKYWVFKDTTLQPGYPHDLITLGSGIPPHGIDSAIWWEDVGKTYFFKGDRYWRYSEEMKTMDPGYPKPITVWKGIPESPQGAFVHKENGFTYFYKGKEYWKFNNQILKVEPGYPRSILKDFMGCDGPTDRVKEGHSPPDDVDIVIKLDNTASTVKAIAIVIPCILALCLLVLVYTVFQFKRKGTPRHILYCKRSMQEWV
MMP24, sequence (Q9Y5R2 156-645, species assumed): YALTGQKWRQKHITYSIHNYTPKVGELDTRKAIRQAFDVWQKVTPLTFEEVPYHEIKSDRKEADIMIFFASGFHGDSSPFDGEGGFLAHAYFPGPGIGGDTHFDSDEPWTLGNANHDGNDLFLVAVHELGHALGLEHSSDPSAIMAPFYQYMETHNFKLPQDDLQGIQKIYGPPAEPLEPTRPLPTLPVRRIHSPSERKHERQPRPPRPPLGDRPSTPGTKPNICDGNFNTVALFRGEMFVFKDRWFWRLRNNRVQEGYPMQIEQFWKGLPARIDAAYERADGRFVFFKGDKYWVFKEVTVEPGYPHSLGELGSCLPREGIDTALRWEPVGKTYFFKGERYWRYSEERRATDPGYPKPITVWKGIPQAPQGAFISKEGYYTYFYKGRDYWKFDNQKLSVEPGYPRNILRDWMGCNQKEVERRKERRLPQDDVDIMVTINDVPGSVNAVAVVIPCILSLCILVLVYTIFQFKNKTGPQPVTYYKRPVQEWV
T3 sequence (P03956 20-469 limits assumed): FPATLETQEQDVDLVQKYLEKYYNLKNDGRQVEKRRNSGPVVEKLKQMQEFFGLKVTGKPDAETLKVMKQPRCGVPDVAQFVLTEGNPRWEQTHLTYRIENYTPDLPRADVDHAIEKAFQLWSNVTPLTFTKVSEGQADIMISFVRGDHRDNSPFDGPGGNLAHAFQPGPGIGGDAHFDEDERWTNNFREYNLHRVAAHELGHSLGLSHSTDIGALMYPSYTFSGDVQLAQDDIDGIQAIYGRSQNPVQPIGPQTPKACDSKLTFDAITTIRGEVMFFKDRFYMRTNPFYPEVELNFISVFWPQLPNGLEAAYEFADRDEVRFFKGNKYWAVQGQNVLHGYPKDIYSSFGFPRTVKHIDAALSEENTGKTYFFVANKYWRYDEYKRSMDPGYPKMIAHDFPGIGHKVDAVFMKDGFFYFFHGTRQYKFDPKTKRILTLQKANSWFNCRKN
MMP15, sequence (P51511 132-669, species assumed): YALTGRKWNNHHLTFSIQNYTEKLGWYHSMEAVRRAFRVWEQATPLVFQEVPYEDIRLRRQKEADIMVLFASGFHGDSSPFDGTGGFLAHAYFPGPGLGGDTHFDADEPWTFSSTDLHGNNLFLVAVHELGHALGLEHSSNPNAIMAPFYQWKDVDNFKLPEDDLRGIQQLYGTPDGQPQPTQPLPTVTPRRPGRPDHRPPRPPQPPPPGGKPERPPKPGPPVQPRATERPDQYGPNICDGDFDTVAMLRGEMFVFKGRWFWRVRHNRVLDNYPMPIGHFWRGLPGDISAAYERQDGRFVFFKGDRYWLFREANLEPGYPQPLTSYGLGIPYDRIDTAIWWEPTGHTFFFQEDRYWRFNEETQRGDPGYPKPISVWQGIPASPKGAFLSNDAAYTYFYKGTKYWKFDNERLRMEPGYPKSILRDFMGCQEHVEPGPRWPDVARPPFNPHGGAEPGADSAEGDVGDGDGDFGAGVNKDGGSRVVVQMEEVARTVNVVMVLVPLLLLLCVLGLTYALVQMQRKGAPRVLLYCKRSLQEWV
MMP9, sequence (P14780 94-707, species assumed): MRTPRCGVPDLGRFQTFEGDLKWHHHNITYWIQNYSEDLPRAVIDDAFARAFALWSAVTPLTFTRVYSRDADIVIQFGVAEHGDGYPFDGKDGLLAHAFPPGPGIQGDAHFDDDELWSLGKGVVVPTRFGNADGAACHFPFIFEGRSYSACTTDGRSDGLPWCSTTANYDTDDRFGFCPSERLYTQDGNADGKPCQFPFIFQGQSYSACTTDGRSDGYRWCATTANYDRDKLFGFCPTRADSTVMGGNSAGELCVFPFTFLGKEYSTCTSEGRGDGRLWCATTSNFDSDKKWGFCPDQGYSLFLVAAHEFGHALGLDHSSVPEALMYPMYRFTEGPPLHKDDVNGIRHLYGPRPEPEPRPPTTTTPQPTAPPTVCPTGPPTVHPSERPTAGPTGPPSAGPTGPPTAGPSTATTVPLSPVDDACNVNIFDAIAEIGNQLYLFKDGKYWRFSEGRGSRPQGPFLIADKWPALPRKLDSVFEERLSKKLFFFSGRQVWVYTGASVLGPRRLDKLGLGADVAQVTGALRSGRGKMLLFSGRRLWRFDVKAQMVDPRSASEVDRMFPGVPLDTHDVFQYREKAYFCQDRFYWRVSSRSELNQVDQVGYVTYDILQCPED

| SMILES | tumor growth (LU-01-0486 PDX model) | binding (MMP24) | binding (MMP1 [1]) | binding (MMP2 [2]) | impact on catalytic activity (MMP9) | impact on catalytic activity (MMP1 [3]) | impact on catalytic activity (MMP2 [4]) | binding (MMP15) | binding (catalytic domain (MT1)) | binding (Pro-MMP1) | binding (MMP16) | impact on cell migration or invasion [5] | impact on catalytic activity (MT1) |
| --- | --- | --- | --- | --- | --- | --- | --- | --- | --- | --- | --- | --- | --- |
| CC(=O)O[C@@]12CO[C@@H]1C[C@H](O)[C@@]1(C)C(=O)[C@H](O)C3=C(C)[C@@H](OC(=O)[C@H](O)[C@@H](NC(=O)OC(C)(C)C)c4ccccc4)C[C@@](O)([C@@H](OC(=O)c4ccccc4)[C@H]21)C3(C)C [Docetaxel, reference compound] | significant inhibition of tumor growth |  |  |  |  |  |  |  |  |  |  |  |  |
| C[C@H](NC(=O)CN(C)C(=O)CN(C)C(=O)CN(C)C(=O)CN(C)C(=O)CN(C)C(=O)CN(C)C(=O)CN(C)C(=O)CN(C)C(=O)CN(C)C(=O)CN(C)C(=O)CCN)C(=O)N[C@H]1CSCc2cc3cc(c2)CSC[C@H](NC(=O)[C@@H](C)NC(=O)[C@H](Cc2cccc4ccccc24)NC(=O)[C@H](CCC(=O)O)NC(=O)[C@H](CC(N)=O)NC(=O)[C@@H](C)NC1=O)C(=O)N[C@@H](CCC(=O)O)C(=O)N[C@@H](CC(=O)O)C(=O)N[C@@H](Cc1ccccc1)C(=O)N[C@@H](Cc1ccc(O)cc1)C(=O)N[C@@H](CC(=O)O)C(=O)N[C@@H](C(C)(C)C)C(=O)N[C@H](C(N)=O)CSC3 [N241] (H-[βAla][Sar][Sar][Sar][Sar][Sar][Sar][Sar][Sar][Sar][Sar]AC[dA]NE[1Nal][dA]CEDFYD[Tle]C-NH2; linker 13-19-26 via TBMB; N-terminus and C-terminus assumed) |  | no binding | no binding | no binding | no direct impact | no direct impact | no direct impact | no binding | no binding | no binding | no binding | no direct impact | no direct impact |
